According to US12616685B2, “Concomitant administration of glucocorticoid receptor modulator relacorilant and CYP2C9 substrates” (Corcept Therapeutics Incorporated, priority 2020, dated 2026):

Experiments:
[1] = Clinical drug-drug interaction study in healthy volunteers (tolbutamide alone vs with relacorilant); details: for effect of relacorilant co-administration on AUC0-tz and AUCinf / reduction of Cmax on co-administration of relacorilant: 500 mg tolbutamide with 350 mg relacorilant vs tolbutamide alone; for AUC0-tz, Ratio of Geometric LSMs (%) / AUCinf, Ratio of Geometric LSMs (%) / Cmax, Ratio of Geometric LSMs (%): 100*(Test/Reference), Treatment E (with relacorilant) vs Treatment B (tolbutamide alone)
Method: An open-label, crossover study was conducted in healthy subjects to determine the effect of relacorilant on the plasma exposure of tolbutamide, a known substrate of CYP2C9. A single 500 mg dose of tolbutamide was administered alone and pharmacokinetic (PK) samples were collected before dosing (0 hour) and at 0.5, 1, 1.5, 2, 2.5, 3, 4, 6, 8, 12, 18, 24, 36, and 48 hours post-dose. Relacorilant (350 mg) was then administered once a day for 10 consecutive days. On the following day, a single 500 mg dose of tolbutamide was administered in combination with relacorilant 350 mg and pharmacokinetic (PK) samples were again collected at pre-dose through 48 hours post-dose at the same timepoints as described above. The plasma concentrations of tolbutamide and its metabolite, 4-hydroxy tolbutamide were evaluated by validated bioanalytical assays on each dosing occasion of tolbutamide.
• ANOVA, analysis of variance; AUCinf, AUC from time 0 extrapolated to infinity; AUC0-tz, AUC from time 0 until the time of the last measurable concentration; Cmax, maximum plasma concentration; CV %, coefficient of variation; LSM, least squares mean. • Treatment B: Single oral dose of 500 mg tolbutamide (Reference). • Treatment E: Single oral dose of 500 mg tolbutamide and 350 mg relacorilant administered on Day 15 followed by oral doses of 350 mg relacorilant administered QD on Days 16 and 17 (Test). • Parameters were ln-transformed prior to analysis. • Geometric Least Square means (LSMs) were calculated by exponentiating the LSMs from the ANOVA. • Ratio of Geometric LSMs=100*(Test/Reference); where Test is Treatment E and Reference is Treatment B.

CYP2C9 = CYP2C9 (Homo sapiens, UniProt P11712); assay: biochemical
CYP2C9, sequence (P11712 whole entry): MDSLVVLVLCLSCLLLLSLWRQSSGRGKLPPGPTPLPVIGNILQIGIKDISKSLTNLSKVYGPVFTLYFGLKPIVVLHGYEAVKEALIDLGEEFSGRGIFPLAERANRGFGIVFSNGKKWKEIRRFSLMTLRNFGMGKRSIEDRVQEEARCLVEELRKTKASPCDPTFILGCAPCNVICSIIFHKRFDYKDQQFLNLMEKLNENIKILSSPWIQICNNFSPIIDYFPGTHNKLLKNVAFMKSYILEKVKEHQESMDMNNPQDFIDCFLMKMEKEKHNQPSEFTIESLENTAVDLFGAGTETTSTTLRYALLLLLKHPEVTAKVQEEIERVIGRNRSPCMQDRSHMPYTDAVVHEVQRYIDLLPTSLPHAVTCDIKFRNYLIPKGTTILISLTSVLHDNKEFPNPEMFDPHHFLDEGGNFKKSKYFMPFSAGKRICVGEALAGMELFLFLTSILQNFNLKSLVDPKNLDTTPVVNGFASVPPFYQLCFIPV
Method: Cytochrome P450 (CYP) isoforms CYP1A2, CYP2C9, CYP2C19, CYP2D6, and CYP3A4, heterologously expressed in E. coli, were obtained from Cypex and mixed to produce a 5-CYP mix. A selective and FDA accepted substrate for each isoform was present in the reaction at a concentration around its Km.
The 5-CYP mix and a CYP substrate cocktail were added and the tubes warmed for 3 minutes whilst mixing on a BioShake IQ (37° C., 1500 rpm). NADPH (final concentration 1 mM) was added and the mixture was incubated for 10 minutes. Methanol containing an internal standard (1 μM tolbutamide) was then added to all samples, and these were mixed and placed at −20° C. for ≥1 hour to quench the reaction and allow protein to precipitate.
All samples were centrifuged (2500×g, 20 minutes, 4° C.). The supernatants were transferred to a fresh 96 well plate, compatible with an autosampler. The plate was sealed with a pre-slit silicone mat and the metabolites were analyzed by LC-MS/MS. […]
The final concentration in the assay of the 5-CYP mix was 32.5 pmol/ml for each of the enzymes evaluated (i.e., CYP1A2, CYP2C9, CYP2C19, CYP2D6, and CYP3A4). […]
The metabolites measured were: CYP1A2, 1-hydroxytacrine; CYP2C9, 4′-hydroxy diclofenac; CYP2C19, 4′-hydroxymephenytoin; CYP2D6, hydroxybufuralol; CYP3A4, 1′hydroxymidazolam. […]

[2] = co-administered with CYP2C9 inhibitor sulfaphenazole, human subjects; Perkins et al. 2018; cited from earlier work
[3] = plasma, single oral 500 mg tolbutamide alone, healthy subjects
[4] = plasma, single oral 500 mg tolbutamide with 350 mg relacorilant after once-daily relacorilant, healthy subjects

SMILES	effect of relacorilant co-administration on AUC0-tz and AUCinf [1]	reduction of Cmax on co-administration of relacorilant [1]	AUC0-tz, Ratio of Geometric LSMs (%) [1] [%]	AUCinf, Ratio of Geometric LSMs (%) [1] [%]	Cmax, Ratio of Geometric LSMs (%) [1] [%]	AUC0-tz, Geometric LSM, Reference (Day 2) Treatment B [1, 3] [µg·h/mL]	AUCinf, Geometric LSM, Reference (Day 2) Treatment B [1, 3] [µg·h/mL]	Cmax, Geometric LSM, Reference (Day 2) Treatment B [1, 3] [ng/mL]	AUC0-tz, Geometric LSM, Test (Day 15) Treatment E [1, 4] [µg·h/mL]	AUCinf, Geometric LSM, Test (Day 15) Treatment E [1, 4] [µg·h/mL]	Cmax, Geometric LSM, Test (Day 15) Treatment E [1, 4] [ng/mL]	IC50 (CYP2C9) [nM]	AUC(0-inf) ([1]; human, plasma, po, 500 mg) [µg·h/mL]	AUC(0-t) ([1]; human, plasma, po, 500 mg) [µg·h/mL]	Cmax ([1]; human, plasma, po, 500 mg) [ng/mL]	fold increase in plasma level of tolbutamide (AUC) with sulfaphenazole [2]
CCCCNC(=O)NS(=O)(=O)c1ccc(CO)cc1 [4-OH Tolbutamide, 4-hydroxy tolbutamide]	no effect	approximately 37%	88.80	89.91	63.49	8.619	8.954	604.3	7.653	8.051	383.6	–	–	–	–	–
Cn1cc(S(=O)(=O)N2CCC3=Cc4c(cnn4-c4ccc(F)cc4)C[C@]3(C(=O)c3cc(C(F)(F)F)ccn3)C2)cn1 [Relacorilant, (R)-(1-(4-fluorophenyl)-6-((1-methyl-1H-pyrazol-4-yl)sulfonyl)-4,4a,5,6,7,8-hexahydro-1H-pyrazolo[3,4-g]isoquinolin-4a-yl)(4-(trifluoromethyl)pyridine-2-yl)methanone]	–	–	–	–	–	–	–	–	–	–	–	2100	–	–	–	–
CCCCNC(=O)NS(=O)(=O)c1ccc(C)cc1 [Tolbutamide, tolbutamide, reference compound]	no effect	approximately 31%	89.11	89.54	69.22	–	–	–	–	–	–	–	602	579	42400	more than 5 fold
